Values joined by “and” are separate entries in the source; they are usually repeats but may differ in a detail not shown here. Equal entries are not always repeated.
How the values were obtained:
Assay in all cases: radiometric filter-binding kinase assay, Kinase HotSpot
Conditions in all cases: compound 0.5 µM; ATP 10 µM
TGFBR2 (human) = TGFBR2 (human) (UniProt P37173)
LCK (human) = LCK (human) (UniProt P06239)
JAK3 JH1 JH2 (human) = JAK3 JH1 JH2 (human) (UniProt P52333)
MAP4K4 (human) = MAP4K4 (human) (UniProt O95819)
Sequence of MAP4K4 (human) (O95819 whole entry, looked up): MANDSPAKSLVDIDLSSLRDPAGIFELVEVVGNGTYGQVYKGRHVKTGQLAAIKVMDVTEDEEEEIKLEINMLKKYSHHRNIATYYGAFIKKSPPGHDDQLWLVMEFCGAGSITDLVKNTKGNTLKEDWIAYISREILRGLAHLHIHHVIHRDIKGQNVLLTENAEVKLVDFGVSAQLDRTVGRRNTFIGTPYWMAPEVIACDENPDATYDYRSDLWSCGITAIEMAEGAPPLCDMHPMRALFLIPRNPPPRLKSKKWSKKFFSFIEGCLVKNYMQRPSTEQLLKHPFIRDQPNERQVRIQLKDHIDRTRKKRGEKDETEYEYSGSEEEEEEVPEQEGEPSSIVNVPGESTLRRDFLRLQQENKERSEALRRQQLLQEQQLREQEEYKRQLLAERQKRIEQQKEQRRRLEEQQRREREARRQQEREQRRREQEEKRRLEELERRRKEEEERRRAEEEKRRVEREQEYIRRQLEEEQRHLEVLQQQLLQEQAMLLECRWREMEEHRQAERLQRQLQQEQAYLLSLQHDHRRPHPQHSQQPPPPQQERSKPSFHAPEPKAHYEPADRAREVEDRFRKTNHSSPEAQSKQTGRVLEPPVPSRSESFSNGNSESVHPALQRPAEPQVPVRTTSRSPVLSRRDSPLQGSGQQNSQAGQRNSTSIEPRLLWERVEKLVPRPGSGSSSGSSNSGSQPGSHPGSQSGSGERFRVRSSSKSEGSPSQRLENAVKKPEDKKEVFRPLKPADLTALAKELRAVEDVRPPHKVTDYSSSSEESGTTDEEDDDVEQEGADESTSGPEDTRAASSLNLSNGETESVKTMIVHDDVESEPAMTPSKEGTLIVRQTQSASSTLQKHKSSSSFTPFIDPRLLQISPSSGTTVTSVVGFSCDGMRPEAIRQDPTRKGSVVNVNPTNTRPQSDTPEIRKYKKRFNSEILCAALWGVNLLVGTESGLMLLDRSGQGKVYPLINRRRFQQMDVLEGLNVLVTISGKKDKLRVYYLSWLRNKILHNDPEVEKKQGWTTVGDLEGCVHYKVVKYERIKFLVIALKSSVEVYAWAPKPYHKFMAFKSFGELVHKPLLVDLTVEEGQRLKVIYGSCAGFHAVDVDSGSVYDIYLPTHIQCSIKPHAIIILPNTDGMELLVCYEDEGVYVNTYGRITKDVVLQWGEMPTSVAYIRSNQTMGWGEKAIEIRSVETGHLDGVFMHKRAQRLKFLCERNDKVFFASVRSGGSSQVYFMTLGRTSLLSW

CAMK4 (human) = CAMK4 (human) (UniProt Q16566)
CAMK1 (human) = CAMK1 (human) (UniProt Q14012)
CAMK2A (human) = CAMK2A (human) (UniProt Q9UQM7)
NEK9 (human) = NEK9 (human) (UniProt Q8TD19)
MAPKAPK3 (human) = MAPKAPK3 (human) (UniProt Q16644)
CLK1 (human) = CLK1 (human) (UniProt P49759)
Sequence of CLK1 (human) (P49759 whole entry, looked up): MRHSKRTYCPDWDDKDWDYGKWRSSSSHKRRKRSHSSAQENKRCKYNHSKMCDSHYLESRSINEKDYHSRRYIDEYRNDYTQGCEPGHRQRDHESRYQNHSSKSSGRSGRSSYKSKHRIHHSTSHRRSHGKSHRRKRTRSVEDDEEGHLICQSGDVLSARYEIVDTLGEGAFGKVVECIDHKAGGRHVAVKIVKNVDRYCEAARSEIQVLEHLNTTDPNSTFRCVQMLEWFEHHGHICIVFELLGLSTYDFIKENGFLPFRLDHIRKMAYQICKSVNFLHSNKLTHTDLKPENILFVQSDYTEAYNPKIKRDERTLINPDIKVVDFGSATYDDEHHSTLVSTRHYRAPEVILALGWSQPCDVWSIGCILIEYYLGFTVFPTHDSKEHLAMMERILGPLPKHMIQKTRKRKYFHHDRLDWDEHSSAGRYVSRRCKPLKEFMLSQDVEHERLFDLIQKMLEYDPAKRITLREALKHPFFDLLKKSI

IRAK1 (human) = IRAK1 (human) (UniProt P51617)
FGR (human) = FGR (human) (UniProt P09769)
CDK6 CCND3 (human) = CDK6 CCND3 (human) (UniProt P30281+Q00534)
PASK (human) = PASK (human) (UniProt Q96RG2)
MAP2K1 (human) = MAP2K1 (human) (UniProt Q02750)
Sequence of MAP2K1 (human) (Q02750 whole entry, looked up): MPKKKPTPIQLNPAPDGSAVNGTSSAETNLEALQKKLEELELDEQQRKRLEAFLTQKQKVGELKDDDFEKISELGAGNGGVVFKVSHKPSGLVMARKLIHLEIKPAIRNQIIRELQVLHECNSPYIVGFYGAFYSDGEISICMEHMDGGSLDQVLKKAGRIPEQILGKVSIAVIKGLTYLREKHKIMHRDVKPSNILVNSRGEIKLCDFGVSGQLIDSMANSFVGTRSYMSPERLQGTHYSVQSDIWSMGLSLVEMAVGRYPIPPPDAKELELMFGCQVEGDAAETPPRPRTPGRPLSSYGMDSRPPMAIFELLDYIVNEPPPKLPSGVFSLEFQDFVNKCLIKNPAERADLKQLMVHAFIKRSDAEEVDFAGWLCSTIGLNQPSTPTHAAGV

MAP3K11 (human) = MAP3K11 (human) (UniProt Q16584)
Sequence of MAP3K11 (human) (Q16584 whole entry, looked up): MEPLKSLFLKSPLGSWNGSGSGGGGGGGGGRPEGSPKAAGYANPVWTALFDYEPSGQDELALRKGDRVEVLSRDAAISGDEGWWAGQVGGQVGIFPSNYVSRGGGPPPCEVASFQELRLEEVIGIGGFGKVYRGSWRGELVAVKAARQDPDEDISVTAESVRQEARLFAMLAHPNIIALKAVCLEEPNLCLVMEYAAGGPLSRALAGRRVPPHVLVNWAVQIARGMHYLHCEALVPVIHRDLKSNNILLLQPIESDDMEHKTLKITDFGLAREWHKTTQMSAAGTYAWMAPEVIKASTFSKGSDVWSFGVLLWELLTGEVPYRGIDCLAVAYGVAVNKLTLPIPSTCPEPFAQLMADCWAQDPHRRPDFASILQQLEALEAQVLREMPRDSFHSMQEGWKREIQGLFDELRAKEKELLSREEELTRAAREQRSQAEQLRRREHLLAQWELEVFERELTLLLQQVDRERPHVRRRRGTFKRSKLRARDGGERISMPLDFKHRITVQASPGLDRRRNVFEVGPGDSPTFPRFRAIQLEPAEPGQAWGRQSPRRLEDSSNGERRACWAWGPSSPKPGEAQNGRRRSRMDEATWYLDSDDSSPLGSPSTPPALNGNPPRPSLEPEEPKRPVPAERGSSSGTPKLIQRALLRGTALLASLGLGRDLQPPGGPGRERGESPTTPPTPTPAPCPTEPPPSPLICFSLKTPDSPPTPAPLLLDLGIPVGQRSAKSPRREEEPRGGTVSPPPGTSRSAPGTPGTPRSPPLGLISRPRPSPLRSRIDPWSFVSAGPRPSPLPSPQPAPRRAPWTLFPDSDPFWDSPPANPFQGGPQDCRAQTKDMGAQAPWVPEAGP

CDK5 CDK5R1 p35 (human) = CDK5 CDK5R1 p35 (human) (UniProt Q00535+Q15078)
PNCK (human) = PNCK (human) (UniProt Q6P2M8)
MAPK8 (human) = MAPK8 (human) (UniProt P45983)
STK3 (human) = STK3 (human) (UniProt Q13188)
Sequence of STK3 (human) (Q13188 whole entry, looked up): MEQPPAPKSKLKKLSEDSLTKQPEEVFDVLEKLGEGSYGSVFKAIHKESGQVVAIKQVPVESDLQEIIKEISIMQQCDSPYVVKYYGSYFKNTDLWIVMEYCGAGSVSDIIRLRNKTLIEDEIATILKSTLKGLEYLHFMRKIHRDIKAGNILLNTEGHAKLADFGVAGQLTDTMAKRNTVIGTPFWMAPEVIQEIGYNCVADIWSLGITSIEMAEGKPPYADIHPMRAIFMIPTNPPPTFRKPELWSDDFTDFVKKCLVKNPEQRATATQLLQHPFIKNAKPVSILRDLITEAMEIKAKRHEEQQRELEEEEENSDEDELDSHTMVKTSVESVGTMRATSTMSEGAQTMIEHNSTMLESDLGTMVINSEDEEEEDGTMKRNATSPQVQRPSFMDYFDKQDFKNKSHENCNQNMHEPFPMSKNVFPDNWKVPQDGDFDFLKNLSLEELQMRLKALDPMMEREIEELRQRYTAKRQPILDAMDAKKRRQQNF

CAMK2B (human) = CAMK2B (human) (UniProt Q13554)
MAPK3 (human) = MAPK3 (human) (UniProt P27361)
STK16 (human) = STK16 (human) (UniProt O75716)
Sequence of STK16 (human) (O75716 whole entry, looked up): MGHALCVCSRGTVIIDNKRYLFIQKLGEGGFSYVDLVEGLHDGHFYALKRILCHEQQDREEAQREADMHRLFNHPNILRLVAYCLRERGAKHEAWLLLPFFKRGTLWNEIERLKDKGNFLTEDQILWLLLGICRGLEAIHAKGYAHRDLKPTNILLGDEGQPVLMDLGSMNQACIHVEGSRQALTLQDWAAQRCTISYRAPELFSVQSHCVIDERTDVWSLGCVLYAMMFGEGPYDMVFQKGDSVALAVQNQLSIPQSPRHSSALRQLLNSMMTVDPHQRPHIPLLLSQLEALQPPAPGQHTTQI

GRK5 (human) = GRK5 (human) (UniProt P34947)
STK17A (human) = STK17A (human) (UniProt Q9UEE5)
STK25 (human) = STK25 (human) (UniProt O00506)
Sequence of STK25 (human) (O00506 whole entry, looked up): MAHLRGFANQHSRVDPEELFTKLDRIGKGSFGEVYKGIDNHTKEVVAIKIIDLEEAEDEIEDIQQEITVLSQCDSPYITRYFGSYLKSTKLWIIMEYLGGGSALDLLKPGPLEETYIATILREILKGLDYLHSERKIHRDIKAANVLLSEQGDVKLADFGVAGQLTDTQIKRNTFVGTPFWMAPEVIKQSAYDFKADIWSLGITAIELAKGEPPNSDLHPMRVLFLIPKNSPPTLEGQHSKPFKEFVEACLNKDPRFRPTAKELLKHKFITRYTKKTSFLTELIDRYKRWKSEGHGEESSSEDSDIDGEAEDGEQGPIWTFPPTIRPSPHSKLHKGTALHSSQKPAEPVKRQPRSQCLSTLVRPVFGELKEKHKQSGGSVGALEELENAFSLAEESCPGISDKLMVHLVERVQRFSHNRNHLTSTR

NEK6 (human) = NEK6 (human) (UniProt Q9HC98)
MYLK (human) = MYLK (human) (UniProt Q15746)
EPHB3 (human) = EPHB3 (human) (UniProt P54753)
MAP3K7 TAB1 (human) = MAP3K7 TAB1 (human) (UniProt O43318+Q15750)
STK38 (human) = STK38 (human) (UniProt Q15208)
STK10 (human) = STK10 (human) (UniProt O94804)
STK33 (human) = STK33 (human) (UniProt Q9BYT3)
MAP3K5 (human) = MAP3K5 (human) (UniProt Q99683)
DCLK2 (human) = DCLK2 (human) (UniProt Q8N568)
SRC (human) = SRC (human) (UniProt P12931)
PRKG1 (human) = PRKG1 (human) (UniProt Q13976)
Sequence of PRKG1 (human) (Q13976 whole entry, looked up): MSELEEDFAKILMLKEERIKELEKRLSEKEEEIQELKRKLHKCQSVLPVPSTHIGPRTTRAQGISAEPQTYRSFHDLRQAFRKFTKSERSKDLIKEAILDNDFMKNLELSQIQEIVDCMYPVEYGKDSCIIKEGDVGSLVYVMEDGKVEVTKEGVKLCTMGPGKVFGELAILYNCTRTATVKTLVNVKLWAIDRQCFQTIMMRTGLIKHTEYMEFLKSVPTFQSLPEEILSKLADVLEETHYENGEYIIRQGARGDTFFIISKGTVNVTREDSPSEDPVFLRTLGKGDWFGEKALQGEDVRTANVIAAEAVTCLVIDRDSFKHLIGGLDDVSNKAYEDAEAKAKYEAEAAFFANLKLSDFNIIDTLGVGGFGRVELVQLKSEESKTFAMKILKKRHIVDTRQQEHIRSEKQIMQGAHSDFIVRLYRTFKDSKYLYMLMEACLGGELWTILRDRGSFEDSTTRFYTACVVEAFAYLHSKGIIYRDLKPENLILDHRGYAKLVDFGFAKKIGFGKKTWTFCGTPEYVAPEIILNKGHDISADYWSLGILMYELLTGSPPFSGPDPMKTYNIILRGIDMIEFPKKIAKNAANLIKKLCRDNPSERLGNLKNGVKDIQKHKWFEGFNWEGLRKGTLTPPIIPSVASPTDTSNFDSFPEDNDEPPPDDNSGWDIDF

MINK1 (human) = MINK1 (human) (UniProt Q8N4C8)
CDK4 CCND3 (human) = CDK4 CCND3 (human) (UniProt P30281+P11802)
ROCK2 (human) = ROCK2 (human) (UniProt O75116)
CAMK2D (human) = CAMK2D (human) (UniProt Q13557)
CAMK2G (human) = CAMK2G (human) (UniProt Q13555)

N#CC(C#N)=C(N)/C(C#N)=C/c1ccc(O)cc1
residual activity (TGFBR2 (human)): 113%
residual activity (LCK (human)): 95.1%
residual activity (JAK3 JH1 JH2 (human)): 102%
residual activity (MAP4K4 (human)): 91.2%
residual activity (CAMK4 (human)): 97.2%
residual activity (CAMK1 (human)): 97.2%
residual activity (CAMK2A (human)): 103%
residual activity (NEK9 (human)): 97.9%
residual activity (MAPKAPK3 (human)): 99.9%
residual activity (CLK1 (human)): 96.5%
residual activity (IRAK1 (human)): 123%
residual activity (FGR (human)): 98.7%
residual activity (CDK6 CCND3 (human)): 100%
residual activity (PASK (human)): 82.9%
residual activity (MAP2K1 (human)): 93.7%
residual activity (MAP3K11 (human)): 94.8%
residual activity (CDK5 CDK5R1 p35 (human)): 91.9%
residual activity (PNCK (human)): 97.3%
residual activity (MAPK8 (human)): 100%
residual activity (STK3 (human)): 95.2%
residual activity (CAMK2B (human)): 93.3%
residual activity (MAPK3 (human)): 101%
residual activity (STK16 (human)): 109%
residual activity (GRK5 (human)): 113%
residual activity (STK17A (human)): 72.8%
residual activity (STK25 (human)): 90.4%
residual activity (NEK6 (human)): 97.3%
residual activity (MYLK (human)): 101%
residual activity (EPHB3 (human)): 99.5%
residual activity (MAP3K7 TAB1 (human)): 94.8%
residual activity (STK38 (human)): 96.9%
residual activity (STK10 (human)): 92.4%
residual activity (STK33 (human)): 93.2%
residual activity (MAP3K5 (human)): 103%
residual activity (DCLK2 (human)): 101%
residual activity (SRC (human)): 92.3%
residual activity (PRKG1 (human)): 89.5% and 91.3%
residual activity (MINK1 (human)): 97.7%
residual activity (CDK4 CCND3 (human)): 97.1%
residual activity (ROCK2 (human)): 98.3%
residual activity (CAMK2D (human)): 91.1%
residual activity (CAMK2G (human)): 89.4%

Nc1ccc2ncnc(NCCc3ccc(Oc4ccccc4)cc3)c2c1
residual activity (TGFBR2 (human)): 110%
residual activity (LCK (human)): 98.3%
residual activity (JAK3 JH1 JH2 (human)): 96.9%
residual activity (MAP4K4 (human)): 99.2%
residual activity (CAMK4 (human)): 98.9%
residual activity (CAMK1 (human)): 107%
residual activity (CAMK2A (human)): 71.3%
residual activity (NEK9 (human)): 95.8%
residual activity (MAPKAPK3 (human)): 101%
residual activity (CLK1 (human)): 101%
residual activity (IRAK1 (human)): 107%
residual activity (FGR (human)): 101%
residual activity (CDK6 CCND3 (human)): 100%
residual activity (PASK (human)): 103%
residual activity (MAP2K1 (human)): 107%
residual activity (MAP3K11 (human)): 103%
residual activity (CDK5 CDK5R1 p35 (human)): 103%
residual activity (PNCK (human)): 98.5%
residual activity (MAPK8 (human)): 104%
residual activity (STK3 (human)): 105%
residual activity (CAMK2B (human)): 95.1%
residual activity (MAPK3 (human)): 105%
residual activity (STK16 (human)): 94.7%
residual activity (GRK5 (human)): 98%
residual activity (STK17A (human)): 96.9%
residual activity (STK25 (human)): 116%
residual activity (NEK6 (human)): 103%
residual activity (MYLK (human)): 98.5%
residual activity (EPHB3 (human)): 97.3%
residual activity (MAP3K7 TAB1 (human)): 96.2%
residual activity (STK38 (human)): 97.9%
residual activity (STK10 (human)): 90.8%
residual activity (STK33 (human)): 101%
residual activity (MAP3K5 (human)): 105%
residual activity (DCLK2 (human)): 99.1%
residual activity (SRC (human)): 102%
residual activity (PRKG1 (human)): 93.1% and 94.5%
residual activity (MINK1 (human)): 95.4%
residual activity (CDK4 CCND3 (human)): 109%
residual activity (ROCK2 (human)): 90.7%
residual activity (CAMK2D (human)): 98.9%
residual activity (CAMK2G (human)): 118%

From the kinase profiling compilation of Christmann-Franck et al. (2016)
